Data from patent US20150351380A1, “TISSUE-PRESERVING LIQUID AND TISSUE-PRESERVING METHOD” (OSAKA UNIVERSITY, priority 2012, published 2015).

System: luciferase transgenic rat-derived oral mucosal cell sheet
Assay: Residual ATP level in luciferase transgenic rat-derived oral mucosal cell sheet after preservation and post-preservation culture
Format: cell-based
Conditions: tBHQ in HBSS (1 μM, 10 μM, 100 μM)
Description: An oral tissue of a luciferase transgenic rat (Hakamata Y, Murakami T, Kobayashi E., Transplantation 2006; 81(8): 1179-1184) was provided by Dr. Eiji Kobayashi in the Division of Development of Advanced Treatment, Jichi Medical University. The oral tissue was washed twice with DMEM (Gibco) supplemented with 1% antibiotics and antimycotics (AbAm, Gibco). The washed tissue was immersed in a solution of dispase I (1,000 PU/ml) in DMEM supplemented with 1% AbAm at 4° C. for 4 hours. After the dispase treatment, the tissue was transferred into a 0.02% EDTA solution (nacalai tesque), immersed therein at room temperature for 2 minutes, and washed twice with PBS. […]
The ATP level in a cell sheet correlates with the viability of the cell sheet. The ATP levels in a cell sheet before preservation, after preservation and after post-preservation culture were measured as an indicator of the viability of the cell sheet. […] After this, the 96-well plate was set in a luminescence microplate reader Centro LB960 (Berthold Technologies GmbH & Co. KG), and according to the device settings of the microplate reader, addition of luciferin (final concentration; 0.19 mg/ml) and measurement of the ATP level were conducted. The measurement temperature was 4° C., the single reading time was 2 seconds, and the total reading time was 12 minutes. […]

CC(C)(C)c1cc(O)ccc1O [tBHQ, tert-butylhydroquinone]
residual ATP level after 7 days of preservation compared with HBSS without additive: higher
